Experimental data from PMC3961306, “Comparison of the Cancer Gene Targeting and Biochemical Selectivities of All Targeted Kinase Inhibitors Approved for Clinical Use” (PLoS ONE, 2014).

Legend:
Assay in all cases: Kinase profiling in a biochemical assay panel (mobility shift assays and ELISA), %-inhibition at 1 μM; selectivity entropy
[1] = molecular target: panel of more than 300 wild-type and mutant kinases (313 kinase panel) (Homo sapiens, UniProt P16234, T674I)
[2] = molecular target: panel of more than 300 wild-type and mutant kinases (313 kinase panel) (Homo sapiens, UniProt P10721, T670I)
[3] = molecular target: panel of more than 300 wild-type and mutant kinases (313 kinase panel) (Homo sapiens, UniProt P07949, M918T)
[4] = molecular target: panel of more than 300 wild-type and mutant kinases (313 kinase panel) (Homo sapiens, UniProt P07949, S891A)
[5] = molecular target: panel of more than 300 wild-type and mutant kinases (313 kinase panel) (Homo sapiens, UniProt P42336)
[6] = molecular target: panel of more than 300 wild-type and mutant kinases (313 kinase panel) (Homo sapiens, UniProt Q04912)
[7] = molecular target: panel of more than 300 wild-type and mutant kinases (313 kinase panel) (Homo sapiens, UniProt P45984)
[8] = molecular target: T1, panel of more than 300 wild-type and mutant kinases (313 kinase panel) (Homo sapiens, UniProt Q12866)
T1 sequence (Q12866 21-999): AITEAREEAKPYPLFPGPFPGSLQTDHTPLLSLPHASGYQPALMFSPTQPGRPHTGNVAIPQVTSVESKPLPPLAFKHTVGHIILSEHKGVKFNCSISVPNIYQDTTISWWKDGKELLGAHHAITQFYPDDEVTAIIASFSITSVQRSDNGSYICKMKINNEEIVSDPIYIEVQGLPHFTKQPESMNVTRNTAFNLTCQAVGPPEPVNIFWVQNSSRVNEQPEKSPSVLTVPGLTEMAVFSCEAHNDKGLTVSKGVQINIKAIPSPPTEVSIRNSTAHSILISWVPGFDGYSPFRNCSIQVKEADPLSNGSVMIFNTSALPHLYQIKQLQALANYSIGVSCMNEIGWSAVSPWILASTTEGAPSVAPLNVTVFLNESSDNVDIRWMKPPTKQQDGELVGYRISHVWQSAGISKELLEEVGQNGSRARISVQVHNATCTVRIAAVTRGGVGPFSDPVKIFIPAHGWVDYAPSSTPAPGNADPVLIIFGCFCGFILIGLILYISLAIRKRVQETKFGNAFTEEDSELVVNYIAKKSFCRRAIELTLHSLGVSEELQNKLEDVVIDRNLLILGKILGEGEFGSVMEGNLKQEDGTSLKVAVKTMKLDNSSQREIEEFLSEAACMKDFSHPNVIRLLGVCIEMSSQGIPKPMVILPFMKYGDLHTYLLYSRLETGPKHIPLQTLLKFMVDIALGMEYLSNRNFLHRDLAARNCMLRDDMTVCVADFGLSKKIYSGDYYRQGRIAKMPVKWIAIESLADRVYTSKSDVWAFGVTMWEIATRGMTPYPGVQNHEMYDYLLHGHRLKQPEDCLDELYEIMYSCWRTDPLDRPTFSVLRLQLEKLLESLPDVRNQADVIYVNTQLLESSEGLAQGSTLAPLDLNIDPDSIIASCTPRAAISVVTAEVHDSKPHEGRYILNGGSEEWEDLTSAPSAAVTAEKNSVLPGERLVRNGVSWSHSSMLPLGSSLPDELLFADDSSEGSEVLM

[9] = molecular target: T2, panel of more than 300 wild-type and mutant kinases (313 kinase panel) (Homo sapiens, UniProt P33981)
T2 sequence (P33981 1-857): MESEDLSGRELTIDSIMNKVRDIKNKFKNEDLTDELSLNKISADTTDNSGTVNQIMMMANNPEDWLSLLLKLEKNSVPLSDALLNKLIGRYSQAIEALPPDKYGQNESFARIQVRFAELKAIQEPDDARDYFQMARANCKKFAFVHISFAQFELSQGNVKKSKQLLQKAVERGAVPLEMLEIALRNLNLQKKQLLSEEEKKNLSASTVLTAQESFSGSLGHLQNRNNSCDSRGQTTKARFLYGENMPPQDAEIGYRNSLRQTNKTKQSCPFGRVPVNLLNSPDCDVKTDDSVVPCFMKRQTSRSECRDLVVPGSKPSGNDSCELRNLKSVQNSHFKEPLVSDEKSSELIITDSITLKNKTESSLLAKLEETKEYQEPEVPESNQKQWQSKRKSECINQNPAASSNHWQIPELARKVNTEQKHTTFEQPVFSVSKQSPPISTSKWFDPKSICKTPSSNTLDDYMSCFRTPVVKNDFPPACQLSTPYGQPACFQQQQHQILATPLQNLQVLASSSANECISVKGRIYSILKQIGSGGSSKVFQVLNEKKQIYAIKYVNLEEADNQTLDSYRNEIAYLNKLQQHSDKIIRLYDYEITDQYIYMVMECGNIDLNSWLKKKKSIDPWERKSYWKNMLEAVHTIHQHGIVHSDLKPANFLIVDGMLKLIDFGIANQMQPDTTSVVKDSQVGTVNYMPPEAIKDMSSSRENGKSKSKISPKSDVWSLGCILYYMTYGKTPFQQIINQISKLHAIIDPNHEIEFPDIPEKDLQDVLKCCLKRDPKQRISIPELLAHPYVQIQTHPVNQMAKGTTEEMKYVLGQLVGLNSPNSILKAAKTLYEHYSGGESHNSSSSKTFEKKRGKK

[10] = kinase KIT(T670I), compound at 1 μM

panel of more than 300 wild-type and mutant kinases (313 kinase panel) (Homo sapiens, UniProt P10721, T670I), sequence (P10721 26-976 T670I): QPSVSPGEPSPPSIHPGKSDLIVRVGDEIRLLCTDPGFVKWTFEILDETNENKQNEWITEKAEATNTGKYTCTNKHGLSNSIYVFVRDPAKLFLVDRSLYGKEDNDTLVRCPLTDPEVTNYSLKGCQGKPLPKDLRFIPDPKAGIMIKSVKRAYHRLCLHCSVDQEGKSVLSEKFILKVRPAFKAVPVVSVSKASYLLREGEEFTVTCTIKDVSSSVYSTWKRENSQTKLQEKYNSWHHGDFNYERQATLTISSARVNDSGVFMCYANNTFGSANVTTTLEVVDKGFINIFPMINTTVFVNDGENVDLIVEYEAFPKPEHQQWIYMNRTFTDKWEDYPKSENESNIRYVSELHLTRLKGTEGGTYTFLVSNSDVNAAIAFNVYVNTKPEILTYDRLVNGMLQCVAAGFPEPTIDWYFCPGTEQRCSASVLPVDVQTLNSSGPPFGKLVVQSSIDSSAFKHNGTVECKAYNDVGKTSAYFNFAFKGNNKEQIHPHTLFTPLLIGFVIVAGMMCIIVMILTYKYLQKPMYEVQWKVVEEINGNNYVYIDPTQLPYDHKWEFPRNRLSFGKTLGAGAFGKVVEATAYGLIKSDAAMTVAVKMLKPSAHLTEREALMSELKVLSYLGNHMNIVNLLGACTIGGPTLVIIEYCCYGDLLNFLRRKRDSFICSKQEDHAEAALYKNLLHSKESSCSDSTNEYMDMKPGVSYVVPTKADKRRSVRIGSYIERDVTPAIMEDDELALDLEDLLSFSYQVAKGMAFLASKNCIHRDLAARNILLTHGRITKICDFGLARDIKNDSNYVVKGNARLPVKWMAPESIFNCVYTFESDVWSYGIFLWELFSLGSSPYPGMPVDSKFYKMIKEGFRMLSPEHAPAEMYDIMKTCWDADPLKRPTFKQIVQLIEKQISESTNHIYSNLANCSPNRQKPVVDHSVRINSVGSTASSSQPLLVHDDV
panel of more than 300 wild-type and mutant kinases (313 kinase panel) (Homo sapiens, UniProt P07949, S891A), sequence (P07949 29-1114 S891A): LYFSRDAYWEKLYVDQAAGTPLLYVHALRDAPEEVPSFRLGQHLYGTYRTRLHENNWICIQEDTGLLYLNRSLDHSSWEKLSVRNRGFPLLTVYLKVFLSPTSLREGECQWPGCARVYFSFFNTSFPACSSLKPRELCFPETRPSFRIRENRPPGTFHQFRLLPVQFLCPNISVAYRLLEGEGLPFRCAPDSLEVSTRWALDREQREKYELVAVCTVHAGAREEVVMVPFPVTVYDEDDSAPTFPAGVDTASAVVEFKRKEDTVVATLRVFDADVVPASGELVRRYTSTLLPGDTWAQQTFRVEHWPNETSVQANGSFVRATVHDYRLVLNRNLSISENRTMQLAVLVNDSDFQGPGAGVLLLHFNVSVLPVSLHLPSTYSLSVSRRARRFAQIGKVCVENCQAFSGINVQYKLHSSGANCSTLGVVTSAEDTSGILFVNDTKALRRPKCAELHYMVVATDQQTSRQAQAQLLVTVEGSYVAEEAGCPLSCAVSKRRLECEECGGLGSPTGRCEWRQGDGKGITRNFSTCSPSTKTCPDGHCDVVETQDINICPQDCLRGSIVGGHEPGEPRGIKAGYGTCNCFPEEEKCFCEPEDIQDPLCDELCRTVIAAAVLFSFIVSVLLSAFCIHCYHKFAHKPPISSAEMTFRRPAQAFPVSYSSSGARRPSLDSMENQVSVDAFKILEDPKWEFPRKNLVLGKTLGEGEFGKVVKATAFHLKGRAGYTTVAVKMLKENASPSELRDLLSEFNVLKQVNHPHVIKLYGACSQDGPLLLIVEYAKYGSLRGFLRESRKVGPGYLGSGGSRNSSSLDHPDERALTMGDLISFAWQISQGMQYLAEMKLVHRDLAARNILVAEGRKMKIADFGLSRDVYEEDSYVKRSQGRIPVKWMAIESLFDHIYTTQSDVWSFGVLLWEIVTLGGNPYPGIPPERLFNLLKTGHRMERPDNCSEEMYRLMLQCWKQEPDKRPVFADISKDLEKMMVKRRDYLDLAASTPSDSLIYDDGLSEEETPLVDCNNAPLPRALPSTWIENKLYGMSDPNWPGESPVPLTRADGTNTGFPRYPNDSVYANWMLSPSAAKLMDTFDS
panel of more than 300 wild-type and mutant kinases (313 kinase panel) (Homo sapiens, UniProt P45984), sequence (P45984 whole entry, change not shown): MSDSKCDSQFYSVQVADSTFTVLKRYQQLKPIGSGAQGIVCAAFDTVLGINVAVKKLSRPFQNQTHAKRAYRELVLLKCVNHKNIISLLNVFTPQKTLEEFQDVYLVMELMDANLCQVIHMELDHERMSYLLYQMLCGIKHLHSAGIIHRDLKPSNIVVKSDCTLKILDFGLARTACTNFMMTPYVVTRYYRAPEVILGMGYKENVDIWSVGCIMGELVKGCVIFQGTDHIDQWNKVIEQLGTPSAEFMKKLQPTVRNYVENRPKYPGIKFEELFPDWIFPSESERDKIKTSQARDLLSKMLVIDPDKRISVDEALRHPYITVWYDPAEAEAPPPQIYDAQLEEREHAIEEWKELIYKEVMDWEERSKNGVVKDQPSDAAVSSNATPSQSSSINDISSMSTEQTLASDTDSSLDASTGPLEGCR
panel of more than 300 wild-type and mutant kinases (313 kinase panel) (Homo sapiens, UniProt P07949, M918T), sequence (P07949 29-1114 M918T): as the sequence (P07949 29-1114 S891A) above, with A863S, M890T counted along it
panel of more than 300 wild-type and mutant kinases (313 kinase panel) (Homo sapiens, UniProt P16234, T674I), sequence (P16234 24-1089 T674I): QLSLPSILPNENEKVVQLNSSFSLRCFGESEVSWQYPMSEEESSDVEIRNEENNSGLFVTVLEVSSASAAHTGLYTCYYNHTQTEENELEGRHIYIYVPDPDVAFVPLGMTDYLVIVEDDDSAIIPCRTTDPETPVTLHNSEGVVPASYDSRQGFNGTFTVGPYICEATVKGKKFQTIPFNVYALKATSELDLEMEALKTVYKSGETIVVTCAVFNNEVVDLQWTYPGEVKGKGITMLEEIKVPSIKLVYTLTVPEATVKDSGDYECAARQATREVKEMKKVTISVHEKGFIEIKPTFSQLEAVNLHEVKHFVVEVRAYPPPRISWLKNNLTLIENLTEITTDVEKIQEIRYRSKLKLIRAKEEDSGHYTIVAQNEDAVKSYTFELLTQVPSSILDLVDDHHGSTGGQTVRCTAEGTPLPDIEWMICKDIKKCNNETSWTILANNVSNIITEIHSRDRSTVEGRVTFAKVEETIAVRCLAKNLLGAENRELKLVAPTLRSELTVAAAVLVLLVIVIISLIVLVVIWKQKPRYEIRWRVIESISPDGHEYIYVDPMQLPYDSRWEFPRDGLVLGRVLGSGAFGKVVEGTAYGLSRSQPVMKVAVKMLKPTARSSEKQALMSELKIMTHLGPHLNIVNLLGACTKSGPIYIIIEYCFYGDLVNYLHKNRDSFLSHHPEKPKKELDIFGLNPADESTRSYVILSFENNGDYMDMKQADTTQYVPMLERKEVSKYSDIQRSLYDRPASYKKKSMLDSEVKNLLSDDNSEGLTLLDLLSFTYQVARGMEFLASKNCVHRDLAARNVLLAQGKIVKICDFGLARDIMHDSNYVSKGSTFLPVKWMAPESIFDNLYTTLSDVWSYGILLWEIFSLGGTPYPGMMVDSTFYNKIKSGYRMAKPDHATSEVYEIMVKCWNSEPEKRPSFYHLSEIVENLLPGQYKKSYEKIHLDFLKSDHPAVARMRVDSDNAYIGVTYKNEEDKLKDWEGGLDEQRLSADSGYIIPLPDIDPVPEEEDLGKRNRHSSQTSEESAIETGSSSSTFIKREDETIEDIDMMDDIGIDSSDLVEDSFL

Row | Structure (SMILES) | %-inhibition of PDGFRα(T674I) ([1]; kinase PDGFRα(T674I), 1 μM) | %-inhibition of KIT(T670I) [2, 10] | %-inhibition of RET(M918T) ([3]; kinase RET(M918T), 1 μM) | %-inhibition of RET(S891A) ([4]; kinase RET(S891A), 1 μM) | %-inhibition of PIK3CA/PIK3R1 ([5]; kinase PIK3CA/PIK3R1, 1 μM) | %-inhibition of RON ([6]; kinase RON, 1 μM) | %-inhibition of JNK2 ([7]; kinase JNK2, compound at 1 μM) | %-inhibition of MER ([8]; kinase MER, compound at 1 μM) | %-inhibition of TTK ([9]; kinase TTK, compound at 1 μM) | %-inhibition of RON ([6]; 1 µM) | %-inhibition of JNK2 ([7]; 1 µM) | %-inhibition of MER ([8]; 1 µM) | %-inhibition of KIT(T670I) ([2]; 1 µM) | %-inhibition of RET(M918T) ([3]; 1 µM) | %-inhibition of RET(S891A) ([4]; 1 µM) | %-inhibition of TTK ([9]; 1 µM) | %-inhibition of PIK3CA/PIK3R1 ([5]; 1 µM) | %-inhibition of PDGFRα(T674I) ([1]; 1 µM)
1 | COc1cc(Nc2c(C#N)cnc3cc(OCCCN4CCN(C)CC4)c(OC)cc23)c(Cl)cc1Cl [bosutinib] | 57% | 7% | 93% | 90% | 37% | – | – | – | – | – | – | – | – | – | – | – | – | –
2 | COc1cc2nccc(Oc3ccc(NC(=O)C4(C(=O)Nc5ccc(F)cc5)CC4)cc3)c2cc1OC [cabozantinib] | 97% | 100% | – | – | 48% | 99% | 4% | 100% | 2.75% | – | – | – | – | – | – | – | – | –
3 | C[C@@H](Oc1cc(-c2cnn(C3CCNCC3)c2)cnc1N)c1c(Cl)ccc(F)c1Cl [crizotinib] | 95% | 64% | – | – | – | – | -2.59% | – | -9% | – | – | – | – | – | – | – | – | –
4 | CC(C)(C)c1nc(-c2cccc(NS(=O)(=O)c3c(F)cccc3F)c2F)c(-c2ccnc(N)n2)s1 [dabrafenib] | 18% | 1.7% | 37% | 53% | 4.42% | 37% | -0.947% | -0.876% | -22% | – | – | – | – | – | – | – | – | –
5 | C#Cc1cccc(Nc2ncnc3cc(OCCOC)c(OCCOC)cc23)c1 [erlotinib] | – | – | – | – | – | – | – | – | – | 8% | 13% | 10% | 14% | 67% | 93% | 6.42% | 11% | –
6 | CO[C@H]1C[C@@H]2CC[C@@H](C)[C@@](O)(O2)C(=O)C(=O)N2CCCC[C@H]2C(=O)O[C@H]([C@H](C)C[C@@H]2CC[C@@H](OCCO)[C@H](OC)C2)CC(=O)[C@H](C)/C=C(\C)[C@@H](O)[C@@H](OC)C(=O)[C@H](C)C[C@H](C)/C=C/C=C/C=C/1C [everolimus] | 0.248% | -2.56% | -4.61% | -3% | 22% | -6.45% | -5.37% | -4.24% | -2.68% | – | – | – | – | – | – | – | – | –
7 | O=S(=O)(c1cccc2cnccc12)N1CCCNCC1 [fasudil] | 21% | 0.568% | – | -1.38% | -7% | -6% | -5% | -2.34% | -11% | – | – | – | – | – | – | – | – | –
8 | CS(=O)(=O)CCNCc1ccc(-c2ccc3ncnc(Nc4ccc(OCc5cccc(F)c5)c(Cl)c4)c3c2)o1 [lapatinib] | – | – | – | – | – | 1.17% | -8% | 6% | 0.257% | – | – | – | 0% | -4.37% | 0.932% | – | -9% | 18%
9 | Cc1ccc(Nc2nccc(N(C)c3ccc4c(C)n(C)nc4c3)n2)cc1S(N)(=O)=O [pazopanib] | – | – | 86% | 100% | 45% | 13% | – | 34% | 31% | – | – | – | 68% | – | – | – | – | –
10 | Cc1ccc(C(=O)Nc2ccc(CN3CCN(C)CC3)c(C(F)(F)F)c2)cc1C#Cc1cnc2cccnn12 [ponatinib] | 99% | – | 101% | 102% | 45% | 39% | – | – | – | – | – | – | – | – | – | – | – | –
11 | N#CC[C@H](C1CCCC1)n1cc(-c2ncnc3[nH]ccc23)cn1 [ruxolitinib] | 17% | -0.512% | – | – | 42% | -5% | -6% | – | 2% | – | – | -0.749% | – | – | – | – | – | –
12 | CCN(CC)CCNC(=O)c1c(C)[nH]c(/C=C2\C(=O)Nc3ccc(F)cc32)c1C [sunitinib] | – | – | – | – | – | 22% | – | – | – | – | – | – | – | – | – | – | – | –
13 | COc1cc2c(Nc3ccc(Br)cc3F)ncnc2cc1OCC1CCN(C)CC1 [vandetanib] | 91% | – | – | – | 23% | – | -4% | 45% | 3% | – | – | – | – | – | – | – | – | –
